Patent publication US4292317A, “1,4-Dihydro-quinoline-3-carboxylic acid derivatives, process for their preparation and compositions containing them” (Laboratorie Roger Bellon, priority 1977, dated 1981)
≈ marks a conversion by molar mass, not a printed value. Where two headings read alike, the source gives them in different places.

Assays:
Format in all cases: cell-based
Arizona 6.211 = assay: M.I.C. in vitro, nutrient agar dilution; settings: 18 h; Table 2; Arizona 6.211 (Gram negative); read-out: M.I.C.
Procedure: (§1) After sterilisation at 120° C., the pH was 6.8.
(§2) The minimum inhibitory concentrations (M.I.C.) were determined by dilution of the test compounds in this mixture, the concentration ranging from 0.05 to 100 μg/cm^3 in a geometric progression with a factor of 2.
(§3) The inoculation of the dishes was carried out by means of a multiple inoculator with 10^-3 dilutions of 18 hour old broth cultures.
(§4) The dishes were placed in an oven at 37° C. and the readings were taken afer an incubation time of 18 hours. The M.I.C. was taken as the lowest concentration which inhibited a culture.

B. subtilis = assay: M.I.C. in vitro, nutrient agar dilution; settings: Bacillus subtilis, 18 h; Table 2; B. subtilis (Gram positive); read-out: M.I.C.
Procedure: as §1, §2, §3, §4

Bord. bronchis. 4.617 = assay: M.I.C. in vitro, nutrient agar dilution; settings: 18 h; Table 2; Bord. bronchis. 4.617 (Gram negative); read-out: M.I.C.
Procedure: as §1, §2, §3, §4

Esch. coli 111 B4 = assay: M.I.C. in vitro, nutrient agar dilution; settings: Escherichia coli, 18 h; Table 2; Esch. coli 111 B4 (Gram negative)
Procedure: as §1, §2, §3, §4

Esch. coli 54.127 O.M.S. = assay: M.I.C. in vitro, nutrient agar dilution; settings: Escherichia coli, 18 h; Table 2; Esch. coli 54.127 O.M.S. (Gram negative); read-out: M.I.C.
Procedure: as §1, §2, §3, §4

Esch. coli 95 I.S.M. = assay: M.I.C. in vitro, nutrient agar dilution; settings: Escherichia coli, 18 h; Table 2; Esch. coli 95 I.S.M. (Gram negative); read-out: M.I.C.
Procedure: as §1, §2, §3, §4

Klebs. pneum. 10.031 = assay: M.I.C. in vitro, nutrient agar dilution; settings: 18 h; Table 2; Klebs. pneum. 10.031 (Gram negative); read-out: M.I.C.
Procedure: as §1, §2, §3, §4

Pr. mirabilis Nig = assay: M.I.C. in vitro, nutrient agar dilution; settings: Proteus mirabilis, 18 h; Table 2; Pr. mirabilis Nig (Gram negative); read-out: M.I.C.
Procedure: as §1, §2, §3, §4

Pr. morganii A.236 = assay: M.I.C. in vitro, nutrient agar dilution; settings: Morganella morganii, 18 h; Table 2; Pr. morganii A.236 (Gram negative); read-out: M.I.C.
Procedure: as §1, §2, §3, §4

Pr. vulgaris 12-53 = assay: M.I.C. in vitro, nutrient agar dilution; settings: Proteus vulgaris, 1253, 18 h; Table 2; Pr. vulgaris 12-53 (Gram negative); read-out: M.I.C.
Procedure: as §1, §2, §3, §4

Providentia 0223 = assay: M.I.C. in vitro, nutrient agar dilution; settings: 18 h; Table 2; Providentia 0223 (Gram negative); read-out: M.I.C.
Procedure: as §1, §2, §3, §4

Ps. aeruginosa 72.345 = assay: M.I.C. in vitro, nutrient agar dilution; settings: Pseudomonas aeruginosa, 18 h; Table 2; Ps. aeruginosa 72.345 (Gram negative); read-out: M.I.C.
Procedure: as §1, §2, §3, §4

Ps. aeruginosa A.22 = assay: M.I.C. in vitro, nutrient agar dilution; settings: Pseudomonas aeruginosa, 18 h; Table 2; Ps. aeruginosa A.22 (Gram negative); read-out: M.I.C.
Procedure: as §1, §2, §3, §4

S. enteritidis Danysz = assay: M.I.C. in vitro, nutrient agar dilution; settings: Salmonella enterica, 18 h; Table 2; S. enteritidis Danysz (Gram negative); read-out: M.I.C.
Procedure: as §1, §2, §3, §4

S. oranienburg 1066 = assay: M.I.C. in vitro, nutrient agar dilution; settings: Salmonella enterica, 18 h; Table 2; S. oranienburg 1066 (Gram negative); read-out: M.I.C.
Procedure: as §1, §2, §3, §4

Serratia = assay: M.I.C. in vitro, nutrient agar dilution; settings: 18 h, Table 2, Berratia (Gram negative), read-out: M.I.C.
Procedure: as §1, §2, §3, §4

Sh. sonnei I.P.S. = assay: M.I.C. in vitro, nutrient agar dilution; settings: Shigella sonnei, 18 h
Procedure: as §1, §2, §3, §4

Staph. 209 P = assay: M.I.C. in vitro, nutrient agar dilution; settings: 18 h; Table 2; Staph. 209 P (Gram positive); read-out: M.I.C.
Procedure: as §1, §2, §3, §4

Staph. 9.144 = assay: M.I.C. in vitro, nutrient agar dilution; settings: 18 h; Table 2; Staph. 9.144 (Gram positive); read-out: M.I.C.
Procedure: as §1, §2, §3, §4

Strepto A 561 = assay: M.I.C. in vitro, nutrient agar dilution; settings: 18 h; Table 2; Strepto A 561 (Gram positive)
Procedure: as §1, §2, §3, §4

Strepto D.M. 19 = assay: M.I.C. in vitro, nutrient agar dilution; settings: 18 h; Table 2; Strepto D.M. 19 (Gram positive); read-out: M.I.C.
Procedure: as §1, §2, §3, §4

Salm. typhi 0901 = assay: microbe, parasite or virus in culture; settings: Salmonella enterica, 18 h; Table 2; Salm. typhi 0901 (Gram negative)
Procedure: as §1, §2, §3, §4

[1] = Table 2, Sh. sonnei I.P.S. (Gram negative), read-out: M.I.C.

Structure (SMILES) | MIC (Arizona 6.211) [µg/mL] | MIC (B. subtilis) [µg/mL] | MIC (Bord. bronchis. 4.617) [µg/mL] | MIC (Esch. coli 111 B4) [µg/mL] | MIC (Esch. coli 54.127 O.M.S.) [µg/mL] | MIC (Esch. coli 95 I.S.M.) [µg/mL] | MIC (Klebs. pneum. 10.031) [µg/mL] | MIC (Pr. mirabilis Nig) [µg/mL] | MIC (Pr. morganii A.236) [µg/mL] | MIC (Pr. vulgaris 12-53) [µg/mL] | MIC (Providentia 0223) [µg/mL] | MIC (Ps. aeruginosa 72.345) [µg/mL] | MIC (Ps. aeruginosa A.22) [µg/mL] | MIC (S. enteritidis Danysz) [µg/mL] | MIC (S. oranienburg 1066) [µg/mL] | MIC (Serratia) [µg/mL] | MIC (Staph. 209 P) [µg/mL] | MIC (Staph. 9.144) [µg/mL] | MIC (Strepto A 561) [µg/mL] | MIC (Strepto D.M. 19) [µg/mL] | other results
CCn1cc(C(=O)O)c(=O)c2cc(Cl)c(N3CCN(C)CC3)cc21 [Example 1, 6-Chloro-1-ethyl-7-(4-methylpiperazinyl)-4-oxo-1,4-dihydro-quinoline-3-carboxylic acid] | 0.2 to 0.8 (≈ 0.572 to 2.29 µM) | 0.2 to 0.4 (≈ 0.572 to 1.14 µM) | 1.6 to 6.2 (≈ 4.57 to 17.7 µM) | 0.2 to 0.4 (≈ 0.572 to 1.14 µM) | 0.2 to 0.4 (≈ 0.572 to 1.14 µM) | 0.4 to 0.8 (≈ 1.14 to 2.29 µM) | 0.2 (≈ 0.572 µM) | 0.4 to 0.8 (≈ 1.14 to 2.29 µM) | 0.2 to 0.8 (≈ 0.572 to 2.29 µM) | 0.4 to 1.6 (≈ 1.14 to 4.57 µM) | 3.1 to 12.5 (≈ 8.86 to 35.7 µM) | 3.1 to 6.2 (≈ 8.86 to 17.7 µM) | 3.1 to 6.2 (≈ 8.86 to 17.7 µM) | 0.4 to 1.6 (≈ 1.14 to 4.57 µM) | 12.5 to 25 (≈ 35.7 to 71.5 µM) | 1.6 to 3.1 (≈ 4.57 to 8.86 µM) | 0.4 (≈ 1.14 µM) | 0.4 to 1.6 (≈ 1.14 to 4.57 µM) | 12.5 to 50 (≈ 35.7 to 143 µM) | 1.6 to 3.1 (≈ 4.57 to 8.86 µM) | MIC (Sh. sonnei I.P.S.): 0.2 to 0.85 µg/mL (≈ 0.572 to 2.43 µM); MIC (Salm. typhi 0901): 0.4 to 1.6 µg/mL (≈ 1.14 to 4.57 µM)
CCn1cc(C(=O)O)c(=O)c2cc(Cl)c(N3CCNCC3)cc21 [Example 3, 6-Chloro-1-ethyl-4-oxo-7-piperazinyl-1,4-dihydro-quinoline-3-carboxylic acid] | 0.2 (≈ 0.596 µM) | 0.2 to 0.4 (≈ 0.596 to 1.19 µM) | 0.2 to 12.5 (≈ 0.596 to 37.2 µM) | 0.2 (≈ 0.596 µM) | 0.2 (≈ 0.596 µM) | 0.2 (≈ 0.596 µM) | 0.2 (≈ 0.596 µM) | 0.2 (≈ 0.596 µM) | 0.2 (≈ 0.596 µM) | 0.2 (≈ 0.596 µM) | 1.6 to 3.1 (≈ 4.76 to 9.23 µM) | 1.6 to 3.1 (≈ 4.76 to 9.23 µM) | 1.6 to 3.1 (≈ 4.76 to 9.23 µM) | 0.2 (≈ 0.596 µM) | 6.2 to 12.5 (≈ 18.5 to 37.2 µM) | 3.1 to 12.5 (≈ 9.23 to 37.2 µM) | 0.4 to 0.8 (≈ 1.19 to 2.38 µM) | 0.4 (≈ 1.19 µM) | 6.2 (≈ 18.5 µM) | 1.6 to 3.1 (≈ 4.76 to 9.23 µM) | MIC (Sh. sonnei I.P.S.; [1]): 0.2 µg/mL (≈ 0.596 µM); MIC (Salm. typhi 0901): 0.2 µg/mL (≈ 0.596 µM)
CCn1cc(C(=O)O)c(=O)c2cc(Cl)c(N3CCN(CCO)CC3)cc21 [Example 4, 6-chloro-1-ethyl-7-[4-(β-hydroxyethyl)-piperazinyl]-4-oxo-1,4-dihydro-quinoline-3-carboxylic acid] | 1.6 (≈ 4.21 µM) | 6.2 (≈ 16.3 µM) | 6.2 (≈ 16.3 µM) | 3.1 (≈ 8.16 µM) | 3.1 (≈ 8.16 µM) | 1.6 (≈ 4.21 µM) | 0.4 (≈ 1.05 µM) | 3.1 (≈ 8.16 µM) | 1.6 (≈ 4.21 µM) | 1.6 (≈ 4.21 µM) | 25 (≈ 65.8 µM) | 12.5 (≈ 32.9 µM) | 12.5 (≈ 32.9 µM) | 3.1 (≈ 8.16 µM) | 25 (≈ 65.8 µM) | 25 (≈ 65.8 µM) | 0.4 (≈ 1.05 µM) | 0.4 (≈ 1.05 µM) | 6.2 (≈ 16.3 µM) | 6.2 (≈ 16.3 µM) | MIC (Sh. sonnei I.P.S.; [1]): 0.8 µg/mL (≈ 2.11 µM); MIC (Salm. typhi 0901): 3.1 µg/mL (≈ 8.16 µM)
